Source: patent US9116157B2, “Ice-cleaved alpha-synuclein as a biomarker” (Brandeis University, priority 2010, dated 2015)

Experiments:
[1] = system: M17 cells carrying empty pcDNA3 vector; experiment: M17 cell viability in the presence of menadione (empty vector); type: cell-based, human; conditions: low concentrations; FIG. 8
[2] = system: M17 cells overexpressing α-synuclein; experiment: M17 cell viability in the presence of menadione (α-synuclein overexpression); type: cell-based, human; conditions: low concentrations; FIG. 8
From the text: (§1) Humans have 28 calpain and caspase isozymes—a large but not impossible number to test. RNAi was used to knock down each of these in turn in a neuronal cell culture model of PD. It is a neuroblastoma cell line (BE(2)-M17) carrying a wild-type α-synuclein overexpressing vector. BE(2)-M17 is a clone of the SK-N-BE(2) cell line that was established in November of 1972 from a bone marrow biopsy taken from a child with neuroblastoma. Synuclein on its own is not toxic to these cells, but it is toxic when combined with an oxidative stress agent such as rotenone or menadione. Greater than 90% reduction of mRNA levels for each of the 29 protease genes was routinely achieved, and greater than 50% reduction in protein levels (typically, about 70% reduction) was routinely achieved.

[3] = system: M17 overexpressing α-synuclein; experiment: α-synuclein fragmentation in M17 cells, western blot with anti-synuclein antibody; type: cell-based, human; conditions: 12 μM and 14 μM in 1% DMSO; FIG. 9
Experimental: In this set of experiments, M17 overexpressing α-synuclein was grown in Optimem in presence or absence of menadione to confluence. Cells were then scraped and lysed by sonnication for SDS-PAGE followed by western blotting with anti-synuclein antibody.

ICE = biological target: T1, ICE (Homo sapiens, UniProt P29466); experiment: ICE digestion of α-synuclein in vitro, SDS-PAGE and western blot with anti-synuclein antibody; type: biochemical
T1 sequence (P29466 120-297 limits assumed): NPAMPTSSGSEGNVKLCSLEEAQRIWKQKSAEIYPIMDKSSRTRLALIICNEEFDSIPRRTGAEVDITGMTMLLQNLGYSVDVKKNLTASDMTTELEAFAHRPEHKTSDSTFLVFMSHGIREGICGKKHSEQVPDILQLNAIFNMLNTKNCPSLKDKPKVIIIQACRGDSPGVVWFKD
T1 sequence (P29466 317-404 limits assumed): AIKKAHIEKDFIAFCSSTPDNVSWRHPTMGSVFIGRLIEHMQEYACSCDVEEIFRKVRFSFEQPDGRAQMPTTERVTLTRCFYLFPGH
Experimental: Here, a 60 ul reaction mixture consisting of 21 μg of synuclein, 10 μg ICE in 100 mM HEPES, pH 7.4, 0.1% OG, 10% glycerol, 150 mM NaCl, with or without 20 μM inhibitor was incubated at 37° C. for 2 hours. 20 μl were withdrawn from the reaction for SDS-PAGE followed by western blotting with anti-synuclein antibody (FIG. 6).

[4] = Blood-brain barrier penetration in animals, preliminary tests; type: in vivo
From the text: The present example describes an approach for assessing is the ability of, inter alia, the two compounds referenced above (i.e., VX-765 and NCGC00185682) to cross the blood brain-barrier (BBB). […] In view of the fact that studies of VX-765 as a potential epilepsy therapeutic are currently underway at Vertex, it is hypothesized that either BBB penetration in humans is better or that the amount of compound in the CNS that is needed to achieve the desired effect being measured in the studies is small.

[5] = system: M17 cells overexpressing alpha-synuclein; experiment: LIVE/DEAD cell viability assay, rescue from alpha-synuclein-induced toxicity; type: cell-based, human; conditions: FIG. 10
From the text: as §1
A cell viability assay was performed using LIVE/DEAD (molecular probes) assay according to the manufacture instructions. As summarized in FIG. 10, both RNAi knockdown of caspase-1/ICE and treatment with the caspase-1/ICE inhibitor block synuclein fragment formation in nerve cells and should inhibit synuclein aggregation in neuronal cells derived from one or more mouse models of PD.

ICE-generated α-synuclein fragment below 17 kD (western blot) (ICE; 20 μM inhibitor, 10 μg ICE, 37° C., 2 hours) | block of caspase-1 cleavage of alpha-synuclein (ICE; dose-dependent, FIG. 6) | BBB penetration [4] | Structure (SMILES) | toxicity to M17 cells carrying empty pcDNA3 vector [1] | toxicity to M17 cells overexpressing α-synuclein [2] | fragmentation of α-synuclein (smaller fragment below 17 kD) [3] | rescue from alpha-synuclein-induced toxicity (cell viability) [5]
 |  |  | CC1=CC(=O)c2ccccc2C1=O [menadione] | not toxic | toxic | induced fragmentation of α-synuclein | 
diminished | completely blocks | low | CC(C)(C)[C@H](NC(=O)c1ccc(N)c(Cl)c1)C(=O)N1CCC[C@H]1C(=O)N[C@H](C#N)CC(=O)O [NCGC00185682] |  |  |  | 
 |  | low | CCO[C@@H]1OC(=O)C[C@@H]1NC(=O)[C@@H]1CCCN1C(=O)[C@@H](NC(=O)c1ccc(N)c(Cl)c1)C(C)(C)C [VX-765] |  |  |  | rescued
